The values that follow come from patent publication US12215135B2, “PDL2 compounds” (IO BIOTECH APS, priority 2016, dated 2025).

“Also recorded” adds a separate entry of the source.

In assay [1] the test system is PBMCs from patients with cancer and healthy donors. Nature of the assay: IFN-γ ELISPOT assay on PBMCs. In kind it is cell-based, human. Particulars: for specific T-cell responses, IFN-γ ELISPOT in vitro assay: PBMCs from HLA-A2+ patients with cancer, stimulated once in vitro with peptide; for IFN-γ ELISPOT response, significance according to the DFR test / IFN-γ ELISPOT response, significance according to the DFR×2 rule: 5 selected PBMCs, patients with malignant melanoma; for immune responses, IFN-γ ELISPOT assay: PBMCs from healthy donors; for CD4+ T cell responses against long peptides, IFN-γ ELISPOT assay: PBMCs from 11 patients with cancer and 11 healthy donors. As for the experimental part: (§1) We collected blood samples from patients with melanoma, renal cell carcinoma, non-hodgkin lymphoma, and ovarian cancer and from healthy. Samples were collected a minimum of four weeks after the termination of any kind of anti-cancer therapy. Peripheral blood mononuclear cells (PBMCs) were isolated using Lymphoprep™ (Alere A S, cat. 1114547) separation, HLA-typed and frozen in FCS with 10% DMSO (Sigma-Aldrich, cat. D5879-100ML). Tumor Infiltrating lymphocytes (TIL) from lesions from two melanoma patients were expanded using high dose IL-2 (6000 units/ml). The protocol was approved by the Scientific Ethics Committee for The Capital Region of Denmark and conducted in accordance with the provisions of the Declaration of Helsinki. Before study entry, a written informed consent from the patients was obtained.
(§2) The IFN-γ and TNF-α ELISPOT technique was performed as described previously (3). We performed the assays according to the guidelines provided by the cancer immunotherapy immunoguiding program (CIP; cimt.eu/cimt/files/dl/cip guidelines.pdf). Unless stated otherwise, PBMCs were stimulated once in vitro with peptide prior to analysis to extend the sensitivity of the assay. To measure T-cell reactivity, nitrocellulose-bottomed 96-well plates (MultiScreen MSIPN4W; Millipore) were coated overnight at room temperature or two days at 4° C. with the relevant antibodies. The wells were washed and blocked with X-vivo medium for 2 h. The PBMCs were added at different cell concentrations in triplicate wells, with PD-L2 peptide or with control peptide, and incubated overnight. The following day, the wells were washed, and the relevant biotinylated secondary antibody (Mabtech) was added, followed by the avidin-enzyme conjugate (AP-Avidin; Calbiochem/Invitrogen Life Technologies); finally, we added the enzyme substrate, NBT/BCIP (Invitrogen Life Technologies) for visualization. The spots on the developed ELISPOT plates were analyzed on a CTL ImmunoSpot S6 Ultimate-V analyzer with Immunospot software, v5.1.
An ELISPOT response was defined, based on the guidelines and recommendations provided by CIP and Moodie et al (5). The non-parametric distribution-free resampling (DFR) and more conservative DFR×2 statistical test were used for a formal comparison between antigen-stimulated wells and negative-control wells. The ELISPOT assays were performed at least in triplicate.

In assay [2] the test system is TAP deficient T2 cells pulsed with peptide. Description: 51chromium-release cytotoxicity assay, PD-L2-specific T-cell cultures against peptide-pulsed T2 cells. In kind it is cell-based, human. To be noted: cultures A and B. The protocol:
(§3) PBMCs from a patient with melanoma were stimulated with irradiated (30 Gy) autologous DCs, which had been pulsed with PD-L205 (PD-L2(16-25)) peptide (PBL:DC ratio 10:1) and IL-7 (40 U/ml) were added (PeproTech, London, UK). The next day, IL-12 (20 U/ml) was added (PeproTech, London, UK). At weekly intervals, we performed three identical stimulations, with irradiated autologous DCs loaded with PDL205 (PD-L2(16-25)), and IL-12 (20 U/ml) added the next day. Then, at weekly intervals, we stimulated the culture three more times with irradiated autologous PBLs loaded with PDL205 (PD-L2(16-25)) (culture:PBL ratio 1:1), but the next day, we added IL-2 (120 U/ml; Proleukin, Novartis).
(§4) The culture was enriched for specific T cells, either by staining with an anti-CD137-PE antibody (BD-Biosciences) or by employing a TNF-α-enrichment and detection kit (according to the procedure by Miltenyi Biotec). Next, we performed magnetic cell isolation with a MACs microbead column (according to the procedure by Miltenyi Biotec). The sorted cells were rapidly expanded by incubating with 0.6 μg anti-CD3 antibody (eBioscience, clone OKT3) and a high dose of IL-2 (Proleukin, Novartis).
(§5) Cytotoxicity Assay PD-L1-specific and PD-L2-specific T-cell-mediated cytotoxicity was measured with conventional 51chromium-release assays, as previously described (4). Target cells were TAP deficient T2 cells, pulsed with HIV-1 pol476-484 ([…], SEQ ID NO: 26), PD-L101 (PD-L1(15-23)), or PD-L205 (PD-L2(16-25)). siRNA-Mediated PD-L2 Silencing of DCs

Assay [3] deals with TAP-deficient T2 cells pulsed with peptide. Nature of the assay: 51Cr release assay, PD-L101-specific T-cell culture against peptide-pulsed T2 cells. In kind it is cell-based, human. To be noted: different effector-to-target ratios. The protocol: as §5
Assay [4] concerns PBMCs from patients with malignant melanoma. Description: TNF-α ELISPOT assay on PBMCs. The class given is cell-based, human. To be noted: 5 selected PBMCs. The protocol: as §1
The IFN-γ and TNF-α ELISPOT technique was performed as described previously (3). We performed the assays according to the guidelines provided by the cancer immunotherapy immunoguiding program (CIP; cimt.eu/cimt/files/dl/cip guidelines.pdf). Unless stated otherwise, PBMCs were stimulated once in vitro with peptide prior to analysis to extend the sensitivity of the assay. […] The spots on the developed ELISPOT plates were analyzed on a CTL ImmunoSpot S6 Ultimate-V analyzer with Immunospot software, v5.1. […]

Assay [5] has as its system PD-L101-specific CD8+ T cells. Nature of the assay: Intracellular cytokine staining of PD-L101-specific T-cell culture. In kind it is cell-based, human. The protocol: (§6) To detect cell subpopulations that produced cytokines, we stimulated a PD-L1-specific T-cell culture (previously described (1)) and a PD-L2-specific T-cell culture with 5 μg/ml of relevant or irrelevant peptide, and incubated the cells for 5 h at 37° C. with 5% CO2. After 1 h of incubation, we added GolgiPlug (BD), diluted at 1:200. After 4 h, cells were washed twice with PBS, stained with fluorochrome-conjugated antibodies specific for surface markers (CD3-APC-H7, CD4-PerCP/FITC, CD8-Pacific Blue/PerCP, and Horizon Fixable Viability Stain 510, all from BD). Cells were washed, fixed, and permeabilized with Fixation/Permeabilization and Permeabilization Buffer (eBioscience), according to the manufacturer's instructions. Cells were subsequently stained with fluorochrome-conjugated antibodies to visualize intracellular cytokines. The following antibody-fluorochrome combinations were used: IFNγ-PE-CY7/APC (eBioscience) and TNFα-APC/BV421 (eBioscience). Relevant isotype controls were used to enable correct compensation and confirm antibody specificity. Stained cells were analyzed with a BD FACSCanto II flow cytometer. Analysis was performed with BD FACSDiva Software.

Another assay concerns T cells. Particulars: previously described, refs (1), (2), (6); cited from earlier work.
The subject of assay [6] is Tumor infiltrating T-lymphocytes from two melanoma patients. Description: Intracellular cytokine staining of tumor infiltrating T-lymphocytes. The class given is cell-based, human. Particulars: TILs from two melanoma patients. The protocol:
as §1
To detect cell subpopulations that produced cytokines, we stimulated a PD-L1-specific T-cell culture (previously described (1)) and a PD-L2-specific T-cell culture with 5 μg/ml of relevant or irrelevant peptide, and incubated the cells for 5 h at 37° C. with 5% CO2. After 1 h of incubation, we added GolgiPlug (BD), diluted at 1:200. […] Stained cells were analyzed with a BD FACSCanto II flow cytometer. […]

In assay [7] the test system is PD-L2 T cell culture-A and -B (PD-L205-specific T cells). Nature of the assay: ELISPOT assay on PD-L2-specific T-cell cultures. To be noted: both PD-L2 specific cultures. The class given is cell-based, human. As for the experimental part: as §2, with “v5.1. […]” for “v5.1.”
Assay [8] has the same test system. Nature of the assay: Intracellular cytokine staining of PD-L2-specific T-cell cultures. The class given is cell-based, human. As for the experimental part: as §3, §4, §6

On to “FIFIATVIAL (Peptide fragment of human PDL2) [PD-L215, HLA-A2 restricted peptide fragment of human PD-L2]”, for which the “specific T-cell responses, IFN-γ ELISPOT in vitro assay” value (shortened to “specific T-cell responses”) in assay [1] is “detected immune responses”.
“ILKEPVHGV (HIV-1 (HLA-A2 high affinity binding epitope)) [HIV-1 pol476-484]”: the “recognition and lysis of peptide-pulsed T2 cells by PD-L2 (PD-L205)-specific T-cell cultures” value (shortened to “recognition and lysis”) in assay [2] is recorded as “did not recognize; also recorded: did not kill”. The “lysis of peptide-pulsed T2 cells by PD-L101-specific T cells” value (“lysis … by PD-L101-specific T cells” for short) in [3] was “no cytotoxicity was observed”.
Consider “LLLMLSLEL (Peptide fragment of human PDL2) [PD-L201, HLA-A2 restricted peptide fragment of human PD-L2]”, for which the “TNF-α ELISPOT response, significance according to the DFR test” value in [4] is “statistically significant”. Also, in assay [1], the “IFN-γ ELISPOT response, significance according to the DFR test” value is “statistically significant”; the “IFN-γ ELISPOT response, significance according to the DFR×2 rule” value is “statistically significant”; the “specific T-cell responses” value was “detected immune responses”; the “immune responses, IFN-γ ELISPOT assay” value is on record as “weaker responses”.
Turning to LLNAFTVTV (PD-L101 (PDL1 peptide)), in assay [2], the “recognition and lysis” value is given as “did not kill”. Moreover, the “spontaneous T-cell responses, IFN-γ ELISPOT test” value in assay [1] (PBMCs from patients with cancer that responded to PD-L205) is “did not detect any immune response”. Besides, the “lysis … by PD-L101-specific T cells” value in [3] is listed as “only lysed T2-cells pulsed with PD-L101”. In addition, in assay [5], the “cytokine release (IFN-γ and TNF-α) from PD-L101-specific CD8+ T cells” value is recorded as “released cytokines only in response to PD-L101”. In addition, in the assay on T cells, the “T cell response elicited by epitope” value is listed as “strong T cell response”.
For “MIFLLLMLSLELQLHQIAALFTVTV (Peptide fragment of human PDL2) [PD-L2long2]”, the “CD4+ T cell responses against long peptides, IFN-γ ELISPOT assay” value in assay [1] is recorded as “frequent but moderate responses”. Also, the “IFN-γ responses, in vitro ELISPOT assay” value in assay [1] (PBMCs from four non-hodgkin lymphoma patients, DFR rule) was “All four patients showed responses that were statistically significant”. Besides, the “IFN-γ CD4+ T-cell responses, intracellular cytokine staining” value in [6] was “elicited IFN-γ CD4+ T-cell responses”.
On to “QIAALFTVTV (Peptide fragment of human PDL2) [PD-L205, HLA-A2 restricted peptide fragment of human PD-L2]”, for which, in assay [2], the “recognition and lysis” value is on record as “could indeed recognize”. Also, the “recognition and lysis” value in assay [2] (listed as PDL205) is “recognized and lysed”. For the same sequence, the “TNF-α ELISPOT response, significance according to the DFR test” value in assay [4] is given as “statistically significant”. Also, the “IFN-γ and TNF-α T cell responses, ELISPOT” value in [7] was “T cell responses were observed”. In [1], the “IFN-γ ELISPOT response, significance according to the DFR test” value is reported as “statistically significant”; the “IFN-γ ELISPOT response, significance according to the DFR×2 rule” value is listed as “statistically significant”; the “specific T-cell responses” value is on record as “detected immune responses”; the “immune responses, IFN-γ ELISPOT assay” value is “strong immune responses”. For the same sequence, the “ex vivo IFN-γ ELISPOT response” value in [1] (PBMCs from four donors, directly ex vivo without prior in vitro peptide stimulation, DFR rule) is “one of these donors showed an ex vivo IFN-γ response that was statistically significant”. In assay [1] (in general, across donors), the “epitope dominance in eliciting immune responses” value was “dominant PD-L2 epitope; also recorded: strongest responses”. In addition, in assay [8] (PD-L2 T cell culture-A), the “CD4+ T cells with TNF-α release in response to peptide” value is on record as “about 4.5%” and the “CD8+ T cells with TNF-α release in response to peptide” value is listed as around 1%. Moreover, in [8] (PD-L2 T cell culture-B), the “CD4+ T cells with TNF-α release in response to peptide” value was “about 7%” and the “CD8+ T cells with TNF-α release in response to peptide” value was around 2%. Moreover, the “lysis … by PD-L101-specific T cells” value in assay [3] is reported as “no cytotoxicity was observed”.
For “SLELQLHQIAALFTVTVPKEL (Peptide fragment of human PDL2) [PD-L2long1]”, the “CD4+ T cell responses against long peptides, IFN-γ ELISPOT assay” value in assay [1] is recorded as “frequent but moderate responses”.
